According to patent US11951100B2, “Formulations of RBP4 inhibitors and methods of use” (Belite Bio, LLC, priority 2019, dated 2024):
Converted amounts (≈) assume the structure as drawn.

What was measured:
[1] = Solvent shift assay in FaSSIF; assay type: physicochemical
Experimental: A solvent shift assay was performed in order to assess the effect of polymer excipients in improving supersaturation and sustainment in biorelevant media. Compound 1 was dissolved in DMSO to generate concentrated dissolved stock solution at 25 mg/mL. Stock API solution was then added to Fasted State Simulated Intestinal Fluid (FaSSIF) solution or FaSSIF solution containing predissolved polymer excipients to final concentration of compound 1 at 0.5 mg/mL. Ratios of Compound 1:polymer excipient in the final solution were either 20:80 or 40:60 (w/w). Samples were analyzed by HPLC to assess dynamic solubility of Compound 1 at various time points over a one hour period.

[2] = system: Caco-2 monolayers; assay: Permeability through Caco-2 monolayers; assay type: in vitro ADME
Experimental: (§1) Several biopharmaceutically relevant parameters of the API (Compound 1) were obtained for the API. […] Based on these two biopharmaceutical parameters, this compound is possibly a BCS Class II. Solubility enhancement is critical for bioavailability of the API for dosing. Therefore, to overcome the limitation from solubility, several experiments were conducted to assess various solubility enhancement approaches utilized in formulation development

[3] = system: Abcd4/rdh8 double knockout mice; assay: Abcd4/rdh8 double knockout mouse model of macular degeneration; assay type: in vivo
Source text: FIG. 2 is a graph of bisretinoid A2E (pmol in the eye) and RBP4 (serum) levels for ABCA4−/−RDH8−/− mice either untreated, treated with vehicle, or treated with Compound 1.
FIG. 3 is a graph of outer nuclear layer (ONL) thickness (μm) as a function of distance (μm) from the optic nerve (ONH). ONL is the cell layer consisting of photoreceptor cell bodies (rods and cones). Dry AMD or STGD is often associated with thinning of the ONL and the loss of photoreceptor cells, indicating macular degeneration.
Abcd4/rdh8 double knockout mice were either untreated or treated with Compound 1. Wild type C57BL/6J mice were also used as a normal control. […] (FIG. 2). Diseases such as dry AMD or Stargardt are associated with thinning of the outer nuclear layer (ONL) of the eye and the loss of photoreceptor cells, indicating macular degeneration.

[4] = Saturated solubility at 80° C., visually estimated; assay type: physicochemical; details: Capmul MCM
[5] = Chemical stability at elevated temperatures (DSC heating, HPLC); assay type: physicochemical; details: Form C batch heated in DSC to a variety of temperatures and holding times
Experimental: The API was heated to a variety of temperatures with several holding time periods in DSC. The resulted solids in DSC pan were extracted with DMSO. The solutions of API were prepared and injected into HPLC for determination of assay and related substances. […] One of possible solution to the API degradation in hot-melt extrusion might be the addition of a plasticizer which may lower the process temperature for maintaining chemical integrity of the API.

[6] = Amorphous form: mDSC glass transition and TGA; assay type: physicochemical; details: preliminary TGA data
Experimental: To assess the feasibility of solid dispersion approach in formulation development, the glass transition temperature of the material was determined by modulated differential scanning calorimetry (mDSC). […] Therefore, as preparing an in-situ amorphous material in DSC pan, the end temperature should not ramp beyond 260° C. The amorphous samples were generated by heating the raw APIs from 25 to 250° C., followed by a rapid cooling to −60° C. The glass transition temperature (Tg) was measured by a slow heating of the generated amorphous samples from −60° C. to 250° C. The Tg for in-situ generated amorphous material from C and Form A was 93° C. and 97° C., respectively. The discrepancy in the two Tg values may simply due to the variation of water content in the samples or chemical purity.

[7] = Log D7.4, shake-flask partitioning; assay type: physicochemical; details: pH 7.4, shake-flask (Pion, Inc.)
Experimental: as §1

[8] = Non-sink dissolution of unmicronized and micronized Form C in SLS in water; assay type: physicochemical; details: aqueous with cosolvent or surfactant or cyclodextrin
Source text: The enhancement in dissolution rate from micronized samples was likely due to the increase in surface area after micronization supported by microscopic images and particle sizing.

[9] = Estimated solubility by solvent aliquot addition, visual inspection; assay type: physicochemical; details: thermodynamic from solid
Experimental: Solubilities of Compound 1 in a few solvents were estimated. The experiments were carried out by adding the test solvent in aliquots to weighed portions of solid. Whether dissolution had occurred was judged by visual inspection after addition of each solvent aliquot. Solubility numbers were calculated by dividing the total amount of solvent used to dissolve the sample by the weight of the sample. The actual solubilities may be greater than the numbers calculated because of the use of solvent aliquots that were too large or because of slow dissolution rates. […] The solubility number is expressed as “greater than or equal to” if dissolution occurred on addition of the first solvent aliquot.

[10] = Melt-quench modulated DSC of Compound 1; assay type: physicochemical
Experimental: A sample of Compound 1 was analyzed by Modulated Differential Scanning Calorimetry using a TA Discovery DSC2500 with RCS90 chiller according to standard instrument procedures provided by manufacturer. Parameters used for the analysis are shown below in Table 4. Two replicates of the experiment were run with reproducible results. The resulting thermogram, shown in FIG. 10C, indicates a glass transition temperature (Tg) of about 93° C., a crystallization temperature (Tc) of about 136° C., and a Tm/Tg ratio of 1.37. The Tm/Tg ratio of 1.37 is indicative of moderate physical stability. Without being bound by theory, the Te observed quickly after Compound 1 entering a rubbery state was indicative of a propensity to crystallize. [table]

[11] = treated vs untreated Abcd4/rdh8 double knockout mice

Total Drug AUC FaSSIF ([1]; 0.5 mg/mL Compound 1 from DMSO stock into FaSSIF, one hour): 13100 min*μgA/mL | Total Drug C60 ([1]; FaSSIF, 60 min): 91.3 μgA/mL | efflux ([2]; apical-to-basolateral and basolateral-to-apical): no significant efflux | absorption potential classification ([2]; apical-to-basolateral and basolateral-to-apical (Absorption Systems)): high | BCS classification ([2]; based on Log D7.4 and Caco-2 data, possibly): BCS Class II | solubility ([4]; 80 °C, oil or lipid, thermodynamic from solid): 16000 µg/mL (≈ 35.1 mM) | saturated solubility ([4]; listed as API): 20000 µg/mL | temperature at which continuous weight loss due to decomposition started (TGA) [6]: 260 °C | logD [7]: 3.23 | solubility ([8]; 0.366% SLS in water, read-out: nominal solubility of the API): ~460 µg/mL (≈ 1.01 mM) | solubility ([8]; 0.36% SLS in water, calculated from SLS concentration vs solubility profile, read-out: solubility of the API): 445 µg/mL (≈ 0.974 mM) | solubility ([9]; 2-propanol, organic solvent or mixture): 4000 µg/mL (≈ 8.76 mM) | solubility ([9]; acetone, organic solvent or mixture): 2000 µg/mL (≈ 4.38 mM) | solubility ([9]; acetonitrile, organic solvent or mixture): < 1000 µg/mL | solubility ([9]; dichloromethane, organic solvent or mixture): 2000 µg/mL (≈ 4.38 mM) | solubility ([9]; dimethylformamide, organic solvent or mixture): 15000 µg/mL (≈ 32.9 mM) | solubility ([9]; ethanol (absolute), organic solvent or mixture): 6000 µg/mL (≈ 13.1 mM) | solubility ([9]; ethyl acetate, organic solvent or mixture): 1000 µg/mL (≈ 2.19 mM) | solubility ([9]; ethyl ether, organic solvent or mixture): < 1000 µg/mL | solubility ([9]; methanol, organic solvent or mixture): 6000 µg/mL (≈ 13.1 mM) | solubility ([9]; tetrahydrofuran, organic solvent or mixture): 6000 µg/mL (≈ 13.1 mM) | solubility ([9]; water): < 1000 µg/mL | Tm/Tg ratio ([10]; indicative of moderate physical stability): 1.37 | crystallization temperature (Tc) ([10]; melt-quenched Compound 1): about 136 °C | glass transition temperature (Tg) ([10]; melt-quenched Compound 1): about 93 °C
SMILES: CC(=O)N1CCc2c(C(=O)N3CCC(c4ccc(F)c(F)c4C(F)(F)F)CC3)n[nH]c2C1 [Compound 1, 1-(3-(4-(3,4-difluoro-2-(trifluoromethyl)phenyl)piperidine-1-carbonyl)-1,4,5,7-tetrahydro-6H-pyrazolo[3,4-c]pyridin-6-yl)ethan-1-one]
reduction in bisretinoid accumulation ([3]; bisretinoid A2E in the eye, ABCA4−/−RDH8−/− mice treated with Compound 1, p=0.003, unpaired t-test): 80% | outer nuclear layer (ONL) thickness ([3]; diseased group treated with Compound 1 vs diseased group): preserved | levels of A2E in the retina [3, 11]: significantly lower | levels of RBP4 in serum [3, 11]: lower | chemical stability at elevated temperatures, HPLC related substances [5]: impurity (with RRT=0.8 in HPLC) were present in all prepared samples except the control sample
